One assay has as its target T1, HDAC6 (Homo sapiens, UniProt Q9UBN7).
T1 construct: purchased BPS Bioscience Corp
T1 sequence (Q9UBN7 1-1215): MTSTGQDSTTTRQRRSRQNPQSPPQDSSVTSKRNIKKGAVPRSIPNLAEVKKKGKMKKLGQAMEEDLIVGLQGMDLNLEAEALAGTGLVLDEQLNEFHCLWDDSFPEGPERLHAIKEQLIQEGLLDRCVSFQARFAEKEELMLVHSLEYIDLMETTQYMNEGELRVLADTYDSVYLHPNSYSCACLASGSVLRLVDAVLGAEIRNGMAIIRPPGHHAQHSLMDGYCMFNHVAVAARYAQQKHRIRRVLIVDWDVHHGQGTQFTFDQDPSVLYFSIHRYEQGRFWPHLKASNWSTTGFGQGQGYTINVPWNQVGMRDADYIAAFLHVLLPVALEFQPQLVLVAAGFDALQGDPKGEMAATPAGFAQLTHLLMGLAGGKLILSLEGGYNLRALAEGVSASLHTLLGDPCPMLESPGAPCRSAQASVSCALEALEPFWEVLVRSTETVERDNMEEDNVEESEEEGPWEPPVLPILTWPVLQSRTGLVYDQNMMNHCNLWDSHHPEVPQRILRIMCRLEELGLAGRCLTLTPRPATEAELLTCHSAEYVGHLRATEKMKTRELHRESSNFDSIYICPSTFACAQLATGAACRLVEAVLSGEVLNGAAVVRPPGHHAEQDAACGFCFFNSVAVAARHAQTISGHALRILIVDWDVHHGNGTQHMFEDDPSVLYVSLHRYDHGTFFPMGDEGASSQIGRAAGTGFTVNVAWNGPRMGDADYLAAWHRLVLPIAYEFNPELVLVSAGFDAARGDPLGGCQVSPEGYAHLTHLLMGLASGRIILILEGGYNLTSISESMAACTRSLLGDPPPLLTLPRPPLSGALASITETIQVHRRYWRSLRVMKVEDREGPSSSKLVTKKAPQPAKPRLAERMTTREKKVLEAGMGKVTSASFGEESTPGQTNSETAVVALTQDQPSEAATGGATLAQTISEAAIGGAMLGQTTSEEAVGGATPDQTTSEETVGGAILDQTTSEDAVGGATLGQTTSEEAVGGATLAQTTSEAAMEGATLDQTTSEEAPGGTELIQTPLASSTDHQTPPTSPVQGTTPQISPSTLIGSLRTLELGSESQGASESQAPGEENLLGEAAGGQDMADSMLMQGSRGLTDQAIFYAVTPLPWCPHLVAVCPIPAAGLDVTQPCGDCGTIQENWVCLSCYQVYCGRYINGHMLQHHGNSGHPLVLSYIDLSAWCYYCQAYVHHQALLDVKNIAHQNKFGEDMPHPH
Briefly: Fluorogenic HDAC assay, HDAC6. It is filed as biochemical. An excerpt:
Of note, there are eighteen human HDACs. Eleven of them, designated as HDAC1-11, are zinc-dependent. Seven of them, designated as Sirt1-7, are NAD+-dependent.
Fluorogenic HDAC assay kits were used to assess the ability of HDAC inhibitors to inhibit deacetylation of lysine residues on a substrate by recombinant proteins HDAC1, 3, 4, 5, 6, 7, 8, 9 and Sirt1 according to the manufacturer's instructions (BPS Bioscience Corp., San Diego, Calif., USA).

Assay [1] has as its system RPMI8226, U266, and NCI-H929 multiple myeloma cell lines. Briefly: Apoptosis in multiple myeloma cells, combined with bortezomib (propidium iodide, FACScan). The format is cell-based, human. Particulars: 24 hours. The procedure: A study was conducted to evaluate the effect of a compound of Formula (I) combined with bortezomib in inducing apoptosis in multiple myeloma cells.
To detect cell cycle progression, cells were incubated with or without the indicated agent for 24 hours, washed twice with ice-cold PBS, collected by centrifugation, and fixed in 70% (v/v) ethanol for 2 hours at −20° C. They were subsequently incubated for 30 minutes at room temperature with 0.2 mL of deoxyribonucleic acid (DNA) extraction buffer (0.2 M Na2HPO4 and 0.1 M citric acid buffer, pH 7.8), re-suspended in 1 mL of propidium iodide staining buffer (0.1% Triton X-100, 100 μg/mL of RNase A, and 80 μg/mL of propidium iodide in PBS), incubated at 37° C. for 30 minutes in darkness, sorted by FACScan, and analyzed using CellQuest software (BD Biosciences).
The study was performed according to the protocol reported in Hsieh et al., Cell Death and Disease, 2014, April; 5:e1166.

The test system of assay [2] is Caspase-3, Caspase-8, and Caspase-9 cleavage in RPMI8226 and NCI-H929. Briefly: Cleavage of Caspase-3, -8 and -9 in multiple myeloma cells, combined with bortezomib. The format is cell-based, human. The procedure:
A study was conducted to evaluate the effect of a compound of Formula (I) combined with bortezomib in increasing cleavage of Caspase-3, Caspase-8, and Caspase-9 in multiple myeloma cells.
Cells (1×10^6) were incubated for 10 minutes at 4° C. in a lysis buffer solution in a culture vessel, and then scraped off the culture vessel, incubated on ice for another 10 minutes, and centrifuged at 17,000×g for 30 minutes at 4° C. Protein samples ([…]) were electrophoresed on SDS gels and transferred onto a nitrocellulose membrane, which was blocked by incubation with 5% fat-free milk in phosphate-buffered saline (PBS) for 30 minutes at room temperature. Immunoblotting was performed by overnight incubation at 4° C. with primary antibodies in PBS, followed by incubation for 1 hour at room temperature with horseradish peroxidase (HRP)-conjugated secondary antibodies, then bound antibodies were measured using enhanced chemiluminescence (ECL) reagent (Advansta Corp., Menlo Park, Calif., USA) and exposure to photographic film.
The study was performed according to the protocol reported in Yang et al., Journal of Molecular Medicine, 2014, November; 92(11):1147-1158.

Assay [3] relates to Aβ42 production in pCAX APP 695 plasmid-transfected Neuro 2a and SH—SYSY cells. Nature of the assay: Aβ42 production in cell culture supernatants. It is filed as cell-based. Particulars: pCAX APP 695 transfected Neuro 2a and SH—SYSY cells; 0.1-10 μM, 24 hours. As for the experimental part:
A study was conducted to evaluate the effect of compounds of Formula (I) in amyloid precursor protein (APP) levels and Aβ42 production.
Moreover, neuro 2a or SH—SYSY cells (1×10^5) were transfected with pCAX APP 695 plasmid for 24 hours, followed by incubation with Compound 12 or Compound 28 (0.1-10 μM) for another 24 hours. Cell culture supernatants were assayed for Aβ42 production.

Assay [4] concerns scopolamine-induced memory deficit. Briefly: Elevated plus maze test, scopolamine-treated rats. It is filed as in vivo. Particulars: gavage twice daily for seven days; scopolamine 1.5 mg/kg i.p. As for the experimental part:
An in vivo study was conducted to evaluate the efficacy of compounds of Formula (I) in improving memory deficits associated with Alzheimer's disease. Compound 12, Compound 28, suberanilohydroxamic acid (50 mg/kg) or vehicle was given to rats by gavage twice daily for seven days prior to behavioral experiments. On the day conducting a behavior assessment, rats in all groups except the control group were administered scopolamine (1.5 mg/kg) by intraperitoneal injection for 30 minutes before the assessment, then a water maze test or an elevated plus maze test was performed. […] The significant reduction in transfer latency time indicated improvement in memory.

As a reminder, the IC50 is the point on the concentration scale where inhibition reaches its midpoint. High values mean lower potency, low ones higher potency. Regarding `O=C(NO)c1ccc(CNc2cccc3cccnc23)cc1` [Compound 28, N-hydroxy-4-((quinolin-8-ylamino)methyl)benzamide], the midpoint of inhibition against HDAC6, the IC50, lay at 4.41 nM. Further, the induction of apoptosis entry in assay [1] is “synergistically induced apoptosis”. Further, the “cleavage of Caspase-3, Caspase-8, and Caspase-9” value in assay [2] is “increased cleavage of Caspase-3, Caspase-8, and Caspase-9”. Further, in assay [3], the Aβ42 production entry was “decreased Aβ42 production”. For the same molecule, the “transfer latency time (elevated plus maze)” value in assay [4] is “significantly rescued scopolamine-mediated increase of transfer latency time”.

Values taken from patent publication US11427544B2, “Histone deacetylase 6 inhibitors and use thereof” (TAIPEI MEDICAL UNIVERSITY, priority 2016, dated 2022).
